Assays:
[1] = tested on: NF-κB-dependent transcription; assay: TNFα-induced activation of NF-κB in recombinant HeLa reporter cells (luciferase); assay type: cell-based
Source text: To test the ACE2 inhibitor ORE1001 for anti-inflammatory activity relevant to IBD, effects of the compound on activation of NF-κB-dependent transcription by TNFα were examined in recombinant reporter cells containing a construct with a luciferase reporter gene under control of NF-κB-dependent regulatory sequences, thereby allowing detection of NF-κB-dependent transcription by measuring reporter enzyme using a conventional luciferase activity assay based on detection of generated light.
In particular, HeLa cells (American Type Culture Collection) were grown in Dulbecco's modified Eagles medium (DMEM) supplemented with 10% fetal calf serum and transiently transfected with an NF-κB—luc construct (Stratagene, Inc.), as follows (with all incubation steps at 37 C unless otherwise indicated). Cells were seeded and grown to about 70% confluency in a 10 cm cell culture dish. Plasmid DNA (10 μg) was added to 1 ml serum free DMEM media in a tube. Fugene 6 transfection reagent (30 μl) (Roche) was then pipetted slowly into the tube and the contents were gently mixed by inversion. The mixture was incubated at room temperature for 15 minutes and then added dropwise to cells in one 10 cm dish. Following incubation for 24 hours, cells were detached from the plate with Trypsin-EDTA (Gibco-BRL), transferred to wells in a clear-bottom white 96-well test plate (Fisher) with 100 μl per well serum free DMEM, at a density of 3×10^4 cells per well, and allowed to attach overnight. Compound (ORE1001) was then added to wells at a concentration of approximately 0, 0.008, 0.04, 0.2, 1.0 or 5.0 μM, followed immediately by addition of TNFα (R&D) to a final concentration of 20 ng/ml. After incubation for 6 hours, 100 μl of Bright-Glo Luciferase buffer (Promega, Cat#E2610) was added, and the plate was incubated at room temperature, with mild shaking, for 10 min. Bioluminescence was then measured using a Veritas luminometer (Turner BioSystems). Each plotted data point represents the average bioluminescence of 4 independent wells.

[2] = tested on: NF-κB-dependent transcription; assay: In vivo basal NF-κB-dependent transcription in NF-κB::Luc reporter mice (abdominal imaging); details: 4 hours
Source text: ORE1001 was further tested for in vivo anti-inflammatory activity by examining its effects on basal levels of NF-κB-dependent transcription in mice engineered in the germline with a construct containing an NF-κB enhancer linked to a luciferase gene (i.e., NF-κB::Luc mice), such that this NF-κB reporter construct is present in all cells of the mice.
More particularly, transgenic NF-κB::Luc mice were generated using three NF-κB response elements from the Igic light chain promoter fused to a firefly luciferase gene as described by Carlsen et al. (2002) J. Immunol. 168:1441-1446. Pronuclear microinjection of purified construct DNA was used to generate transgenic founders in the C57BL/6 XCBA/J background. Founders were subsequently back crossed to the C57BL/6 albino background. […] Signal data were also quantitated and archived using the Living Image® software. Photons of light were quantitated using an oval region of interest (ROI) of varying sizes depending on the procedure, as described further below.
To test for in vivo effects of ORE1001 on basal levels of NF-κB-dependent transcription, male NF-κB::Luc mice were subjected to quantitative in vivo imaging of the abdominal area (using a fixed ROI of 2.76×3.7 cm) as described above, immediately before, and at 2, […]

[3] = tested on: activator protein-1 (AP-1); assay: Basal in vivo reporter luciferase expression in AP-1::Luc mice; details: data not shown
[4] = tested on: LPS-induced NF-κB signaling; assay: In vivo LPS-induced NF-κB-dependent transcription in NF-κB::Luc mice (abdominal imaging)
Source text: More particularly, transgenic NF-κB::Luc mice were generated using three NF-κB response elements from the Igic light chain promoter fused to a firefly luciferase gene as described by Carlsen et al. (2002) J. Immunol. 168:1441-1446. Pronuclear microinjection of purified construct DNA was used to generate transgenic founders in the C57BL/6 XCBA/J background. Founders were subsequently back crossed to the C57BL/6 albino background. All experimental protocols were approved by the Institutional Animal Care and Use Committee and conform to the ILAR guide for the care and used of laboratory animals. […] Signal data were also quantitated and archived using the Living Image® software. Photons of light were quantitated using an oval region of interest (ROI) of varying sizes depending on the procedure, as described further below.
ORE1001 was further tested for in vivo anti-inflammatory activity by examining its effects on bacterial LPS-induced NF-κB-dependent transcription, in NF-κB::Luc mice. […] Mice were subjected to quantitative abdominal imaging at 2, 4 and 6 h following LPS administration, as described above. […] Luciferase signal was quantitated from several regions of interest. […]
As shown by the quantitative imaging data in FIG. 4, LPS induced a strong NF-κB-dependent luciferase signal in control mice, indicating a strong NF-κB signaling response, as expected. […]

[5] = tested on: LPS-induced NF-κB-dependent transcription; assay: LPS-induced NF-κB-dependent transcription in extracted organs of NF-κB::Luc mice (luciferase assay); assay type: in vivo; details: 30 mg/kg; 0.5 mg/kg LPS; versus LPS alone
Source text: For luciferase assays, organs were extracted and snap frozen in liquid nitrogen. All tissue samples were placed in lysis buffer with inhibitors (Passive Lysis Buffer (Promega) and Complete Mini Protease Inhibitor Cocktail (Roche, Indianapolis, Ind.)), and were homogenized using a tissue homogenizer (Handishear, Hand-held homogenizer, VirTis, Gardiner, N.Y.). Tissue homogenates were centrifuged and clarified lysates were used for luminometer assays and western blots. For the luminometer assays, Luciferase Assay Substrate (Luciferase Assay System, Promega) was prepared as indicated by the manufacturer and placed in disposable cuvettes. […] Background luminescence readings were obtained and the background readings were subtracted from the luminescent data. Protein concentrations were determined using the BCA Protein Assay Kit (Pierce, Rockford, Ill.) following the manufacturer's protocols and analyzed using a VERSAmax tunable microplate reader and associated Softmax Pro version 3.1.2 software (Molecular Devices, Sunnyvale Calif.). The luminescence for each of the protein lysates was calculated as arbitrary units of light per microgram of protein. […]
ORE1001 was further tested for in vivo anti-inflammatory activity by examining its effects on bacterial LPS-induced NF-κB-dependent transcription, in NF-κB::Luc mice. […] Luciferase signal was quantitated from several regions of interest. […]

[6] = tested on: radiation-induced proctitis; assay: Rat model of radiation-induced proctitis (endoscopy, histopathology, body weight); assay type: in vivo; details: for proctitis severity (endoscopy, day 8): 17.5 Gy on day 0
Source text: A rat model was used to determine whether ORE1001 can reduce severity of radiation-induced proctitis, as assessed by endoscopy, and can reduce histopathological indicators of radiation-induced proctitis. This is a validated model, as described for example in the publications cited individually below and incorporated herein by reference.
Female Lewis rats of body weight 175-200 g and 6-8 weeks old were randomized into 3 groups of 8 animals each, for induction of proctitis by radiation as described below. In addition, a group of 8 female Lewis rats of body weight 175-200 g and 6-8 weeks old were followed as untreated, non-irradiated controls. Animals were acclimated prior to study commencement. The study was performed in animal rooms provided with filtered air at a temperature of 70±5° F. (˜21±3° C.) and relative humidity of 50±20%, and a 12 h/12 h light/dark cycle. Animals were fed with LabDiet 5053 sterile irradiated rat chow. Water was provided ad libitum.
Proctitis was induced by a single 17.5 Gy dose of radiation at a rate of 1 Gy/minute administered to each animal on day 0. Lead shielding was used to cover the animal except for a 3×4 cm area of the lower pelvis, permitting exposure to radiation of an approximately 2 cm length of rectum and distal descending colon. Radiation was generated with a Kimtron 160 kV, 15 mA source at a focal distance of 30 cm, hardened with a 0.35 mm Cu filtration system. Prior to irradiation, animals were anesthetized with an intraperitoneal injection of ketamine (100 mg/kg) and xylazine (5 mg/kg). Animals were inclined in a slightly head-down position, to allow gravity to move non-target abdominal organs out of the radiation path as much as possible.
ORE1001 in a vehicle of 0.5% carboxymethylcellulose (CMC) in sterile water was administered per os at a daily dose of 600 mg/kg in 5 ml/kg vehicle from day 0 to day 7 (first group) or from day −2 to day 7 (second group). A third group received vehicle only, from day −2 to day 7.
All animals were weighed daily and examined for diarrhea and fecal blood. On day 8, all animals were examined by rodent endoscope under isoflurane anesthesia and were scored for severity of proctitis. Following endoscopy, animals were euthanized by CO2 inhalation and the descending colon and rectum to the anus were taken as a single tissue sample for histological examination. Histopathology was recorded by scoring inflammation, edema and necrosis.

[7] = 600 mg/kg per os daily, day 0 to day 7
[8] = 600 mg/kg per os daily, day −2 to day 7

CC(C)C[C@H](N[C@@H](Cc1cncn1Cc1cc(Cl)cc(Cl)c1)C(=O)O)C(=O)O [ORE1001, (S,S)-2-[1-carboxy-2-[3-(3,5-dichlorobenzyl)-3H-imidazol-4-yl]-ethylamino]-4-methylpentanoic acid]
inhibition of TNFα-induced activation of NF-κB-dependent transcription ([1]; 8 nM, TNFα 20 ng/ml, 6 hours, HeLa): over 80% | maximal inhibition of TNFα-induced activation of NF-κB-dependent transcription ([1]; 0.2 μM, TNFα 20 ng/ml, 6 hours, HeLa): over 95% | TNFα-induced activation of NF-κB-dependent transcription ([1]; all tested concentrations (0.008-5.0 μM)): significantly inhibited | inhibition of basal in vivo levels of NF-κB-dependent transcription in abdominal ROI ([2]; 300 mg/kg subcutaneous, p<0.01): over 40% | inhibition of basal in vivo levels of NF-κB-dependent transcription in abdominal ROI ([2]; both lower doses, subcutaneous): lesser but still significant extents | basal in vivo levels of reporter luciferase expression [3]: no significant effect | LPS-induced NF-κB signaling response, abdominal region ([4]; FIG. 4, 30, 100, 300 mg/kg subcutaneous 1 hour before LPS i.v.): significantly reduced | LPS-induced NF-κB signaling, abdominal region ([4]; FIG. 5, lower dose range 3-100 mg/kg, at 30 and 100 mg/kg): significantly reduced | LPS-induced NF-κB signaling in pancreas and uterus, or any other organ analyzed [5]: no statistically significant decrease | reduction of LPS-induced NF-κB-dependent transcription in stomachs [5]: about 37 fold | edema score (histopathology) [6, 7]: statistically non-significant trend for reduction | necrosis score (histopathology) [6, 7]: statistically non-significant trend for reduction | sum score (histopathology) [6, 7]: statistically non-significant trend for reduction | proctitis severity (endoscopy, day 8) [6, 7]: minor but statistically non-significant reduction | inflammation score (histopathology) [6, 8]: statistically significant reductions | necrosis score (histopathology) [6, 8]: statistically significant reductions | sum of inflammation, edema and necrosis scores [6, 8]: statistically significant reductions | proctitis severity (endoscopy, day 8) [6, 8]: substantial reduction | body weight change ([6]; among the treatments): No major differences

Reference: patent publication US20100204286A1, “METHOD FOR REDUCING GASTROINTESTINAL ADVERSE EFFECTS OF CYTOTOXIC AGENTS” (priority 2009, published 2010)
